Test results published in US20260364080A1, “PYRAZOLO-PYRIMIDINONE COMPOUNDS FOR USE IN METHODS OF INHIBITING WEE1 A KINASE” (Acrivon Therapeutics, Inc., priority 2023, published 2026).
Where two headings read alike, the source gives them in different places.

How the values were obtained:
[1] = target: T1, Wee1A kinase (CDK1 Tyr15 phosphorylation in ACHN renal cell carcinoma cells) (Homo sapiens, UniProt P30291); experiment: High-content imaging of pCdk1 Y15, Wee1A kinase target engagement in ACHN cells; type: cell-based
T1 construct: pCDK1 Tyr15 immunofluorescence read-out
In short: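 EC50 values come from the per-well fraction of cells with nuclear pCdk1 Y15 staining, normalised to DMSO control, by automated immunofluorescence imaging. Cells were ACHN renal carcinoma, treated 4 h with compound at 7–5,000 nM or 0.3–200 nM.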

[2] = target: T2, Myt1 kinase (recombinant PMYT-1) (Homo sapiens, UniProt Q99640); experiment: Myt1 kinase binding assay (LanthaScreen Eu Kinase Binding Assay)
T2 construct: full length PMYT-1 was expressed by baculovirus in insect cells; purchased Invitrogen A30984; host or cells: insect cells (baculovirus)
T2 sequence (Q99640 1-499): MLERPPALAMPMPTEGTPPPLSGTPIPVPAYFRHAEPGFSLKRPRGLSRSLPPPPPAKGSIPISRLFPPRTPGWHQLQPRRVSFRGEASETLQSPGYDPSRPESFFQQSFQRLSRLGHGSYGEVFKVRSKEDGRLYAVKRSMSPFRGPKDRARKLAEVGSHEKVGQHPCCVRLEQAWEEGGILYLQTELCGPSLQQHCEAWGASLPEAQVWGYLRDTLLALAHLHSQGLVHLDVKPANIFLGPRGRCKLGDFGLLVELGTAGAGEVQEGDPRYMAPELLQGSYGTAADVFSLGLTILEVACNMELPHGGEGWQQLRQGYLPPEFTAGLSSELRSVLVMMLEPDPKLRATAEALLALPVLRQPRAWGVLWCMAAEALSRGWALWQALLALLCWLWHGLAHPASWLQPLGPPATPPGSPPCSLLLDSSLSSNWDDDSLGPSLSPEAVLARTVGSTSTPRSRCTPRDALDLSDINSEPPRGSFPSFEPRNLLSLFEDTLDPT
In short: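 Compound binding to Myt1 kinase was assessed using the LanthaScreen Eu Kinase Binding Assay. This europium-based binding format was applied to quantify how strongly each compound bound to the Myt1 enzyme, and the binding affinity was reported for each compound as an IC50 value.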

[3] = target: T3, recombinant human Wee1A kinase (Homo sapiens, UniProt P30291); experiment: Wee1A kinase binding assay (LanthaScreen Eu time-resolved FRET)
T3 construct: full length Wee1 kinase was expressed by baculovirus in insect cells; purchased Invitrogen PV3817; host or cells: insect cells (baculovirus)
In short: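 Full-length, baculovirus-expressed GST-tagged Wee1A (5 nM) was mixed with 2 nM Eu-anti-GST antibody, 30 nM kinase tracer 178 and compound (1% DMSO). Buffer was 50 mM HEPES pH 7.5, 10 mM MgCl2, 1 mM EGTA, 0.01% Brij-35, incubated 60 min at room temperature. TR-FRET 665/615 nm emission ratios from duplicates were curve-fitted.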

[4] = 4 h treatment, nuclear positivity for pCdk1 Y15 vs DMSO control, read-out: CDK1 Tyr15 Phosphorylation EC50
[5] = 3 nM tracer 178, 2.5 nM PMYT-1, 1 nM Eu-labeled antibody, read-out: Myt1 kinase Binding IC50
[6] = 30 nM tracer 178, 5 nM Wee1A kinase, 2 nM Eu-labeled antibody, 60 minutes at room temperature, read-out: Wee1A kinase Binding IC50
[7] = read-out: CDK1 Tyr15 Phosphorylation EC50, 4 h treatment, nuclear positivity for pCdk1 Y15 vs DMSO control
[8] = Myt1 kinase Binding IC50, 3 nM tracer 178, 2.5 nM PMYT-1, 1 nM Eu-labeled antibody

T1 sequence (P30291 whole entry): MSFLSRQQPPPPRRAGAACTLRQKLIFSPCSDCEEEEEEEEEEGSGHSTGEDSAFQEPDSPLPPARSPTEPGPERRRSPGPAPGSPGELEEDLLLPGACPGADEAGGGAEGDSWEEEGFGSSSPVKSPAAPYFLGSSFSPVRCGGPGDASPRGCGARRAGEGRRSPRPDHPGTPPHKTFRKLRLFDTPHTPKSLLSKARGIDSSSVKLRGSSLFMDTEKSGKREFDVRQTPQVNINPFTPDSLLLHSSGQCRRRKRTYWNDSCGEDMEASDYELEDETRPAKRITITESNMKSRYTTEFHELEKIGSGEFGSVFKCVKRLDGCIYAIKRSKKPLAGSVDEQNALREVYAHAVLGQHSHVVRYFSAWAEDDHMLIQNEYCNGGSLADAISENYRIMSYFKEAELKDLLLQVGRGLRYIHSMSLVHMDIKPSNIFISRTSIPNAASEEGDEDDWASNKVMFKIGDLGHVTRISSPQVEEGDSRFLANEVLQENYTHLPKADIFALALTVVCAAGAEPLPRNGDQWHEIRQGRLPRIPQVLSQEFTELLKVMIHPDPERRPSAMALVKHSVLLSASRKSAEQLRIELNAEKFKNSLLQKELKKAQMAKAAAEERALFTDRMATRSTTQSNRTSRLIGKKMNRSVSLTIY
T3 sequence (P30291 whole entry): as above

Row | EC50 [1, 4] [nM] | IC50 [2, 5] [nM] | IC50 [3, 6] [nM] | EC50 [1, 7] [nM] | IC50 [2, 8] [nM] | IC50 [3] [nM] | Compound
1 | 100 to 500 | < 20 | < 10 | – | – | – | C=CCn1c(=O)c2cnc(Nc3ccc4nn(C)cc4c3)nc2n1-c1cccc(OC2CCNCC2)n1 [Compound 274, 2-allyl-6-((2-methyl-2H-indazol-5-yl)amino)-1-(6-(piperidin-4-yloxy)pyridin-2-yl)-1,2-dihydro-3H-pyrazolo[3,4-d]pyrimidin-3-one]
2 | < 100 | 20 to 100 | < 10 | – | – | – | C=CCn1c(=O)c2cnc(Nc3ccc4c(cnn4C)c3)nc2n1-c1cccc(N[C@@H]2CCN(C)C2)n1 [Compound 115]
3 | – | – | – | > 1000 | > 500 | < 10 | C=CCn1c(=O)c2cnc(Nc3ccc(Cl)cc3)nc2n1-c1cccc(O[C@H]2CN3CCC2CC3)n1 [Compound 176, 1-{6-[(3R)-1-azabicyclo[2.2.2]octan-3-yloxy]pyridin-2-yl}-6-[(4-chlorophenyl)amino]-2-(prop-2-en-1-yl)-1H,2H,3H-pyrazolo[3,4-d]pyrimidin-3-one]
4 | 100 to 500 | 20 to 100 | < 10 | – | – | – | C=CCn1c(=O)c2cnc(Nc3ccc4nccn4c3)nc2n1-c1cccc(OC2CCN(C)CC2)n1 [Compound 328, 6-(1,3a-diaza-5-indenylamino)-2-allyl-1-[6-(1-methyl-4-piperidyloxy)-2-pyridyl]-1,2-dihydro-3H-1,2,5,7-tetraazainden-3-one]
5 | < 100 | < 20 | < 10 | – | – | – | C=CCn1c(=O)c2cnc(Nc3ccc4nc(C)sc4c3)nc2n1-c1cccc(OC2CCNCC2)n1 [Compound 264, 2-allyl-6-(2-methyl-1,3-benzothiazol-6-ylamino)-1-[6-(4-piperidyloxy)-2-pyridyl]-1,2-dihydro-3H-1,2,5,7-tetraazainden-3-one]
6 | 100 to 500 | 20 to 100 | < 10 | – | – | – | C=CCn1c(=O)c2cnc(Nc3ccc(F)cc3)nc2n1-c1cccc(O[C@H]2CCCNCC2)n1 (single isomer, unassigned) [Compound 266]
7 | 100 to 500 | 100 to 500 | < 10 | – | – | – | C=CCn1c(=O)c2cnc(Nc3cc(C)cc(F)c3)nc2n1-c1cccc(NC2CCNCC2)n1 [Compound 160, 2-allyl-6-(3-fluoro-5-toluidino)-1-[6-(4-piperidylamino)-2-pyridyl]-1,2-dihydro-3H-1,2,5,7-tetraazainden-3-one]
8 | < 100 | 100 to 500 | < 10 | – | – | – | C=CCn1c(=O)c2cnc(Nc3ccc4c(cnn4C)c3)nc2n1-c1cccc(O[C@@H]2CCN(C)[C@H](C)C2)n1 (stereo in doubt) [Compound 382, 2-allyl-1-(6-(((2R,4R)-1,2-dimethylpiperidin-4-yl)oxy)pyridin-2-yl)-6-((1-methyl-1H-indazol-5-yl)amino)-1,2-dihydro-3H-pyrazolo[3,4-d]pyrimidin-3-one]

The next lines start with the molecule.

Row | Compound | EC50 [1, 4] [nM] | IC50 [2, 5] [nM] | IC50 [3, 6] [nM] | EC50 [1, 7] [nM] | IC50 [2, 8] [nM] | IC50 [3] [nM]
9 | CCn1c(=O)c2cnc(Nc3ccc(C#N)cc3)nc2n1-c1cccc(OC2CCNCC2)n1 [Compound 302, p-{2-ethyl-3-oxo-1-[6-(4-piperidyloxy)-2-pyridyl]-1,2-dihydro-3H-1,2,5,7-tetraazainden-6-ylamino}benzonitrile] | 500 to 1000 | 20 to 100 | < 10 | – | – | –
10 | CCn1c(=O)c2cnc(Nc3ccc(F)cc3)nc2n1-c1cccc(OC2CCNCC2)n1 [Compound 297, 2-ethyl-6-(p-fluorophenylamino)-1-[6-(4-piperidyloxy)-2-pyridyl]-1,2-dihydro-3H-1,2,5,7-tetraazainden-3-one] | 100 to 500 | 100 to 500 | < 10 | – | – | –
11 | Cc1cc(Nc2ncc3c(=O)n(C)n(-c4cccc(OC5CCNCC5)n4)c3n2)ccc1F [Compound 154, 6-(4-fluoro-3-toluidino)-2-methyl-1-[6-(4-piperidyloxy)-2-pyridyl]-1,2-dihydro-3H-1,2,5,7-tetraazainden-3-one] | 100 to 500 | 100 to 500 | < 10 | – | – | –
12 | C=CCn1c(=O)c2cnc(Nc3cnn(C)c3)nc2n1-c1cccc(N(C)C2CCNCC2)n1 [Compound 182, 1-{6-[methyl(piperidin-4-yl)amino]pyridin-2-yl}-6-[(1-methyl-1H-pyrazol-4-yl)amino]-2-(prop-2-en-1-yl)-1H,2H,3H-pyrazolo[3,4-d]pyrimidin-3-one] | – | – | – | > 1000 | > 500 | < 10
13 | C=CCn1c(=O)c2cnc(Nc3cnn(CC(C)C)c3)nc2n1-c1cccc(N(C)C2CCN(C)CC2)n1 [Compound 175, 1-{6-[methyl(1-methylpiperidin-4-yl)amino]pyridin-2-yl}-6-{[1-(2-methylpropyl)-1H-pyrazol-4-yl]amino}-2-(prop-2-en-1-yl)-1H,2H,3H-pyrazolo[3,4-d]pyrimidin-3-one] | – | – | – | 500 to 1000 | > 500 | < 10
14 | C=CCn1c(=O)c2cnc(Nc3cncc(F)c3)nc2n1-c1cccc(OC2CCNCC2)n1 [Compound 329, 2-allyl-6-(5-fluoro-3-pyridylamino)-1-[6-(4-piperidyloxy)-2-pyridyl]-1,2-dihydro-3H-1,2,5,7-tetraazainden-3-one] | 500 to 1000 | 20 to 100 | < 10 | – | – | –
15 | C=CCn1c(=O)c2cnc(Nc3cc(-c4ccccc4)ns3)nc2n1-c1cccc(NC2CCN(C)CC2)n1 [Compound 158, 2-allyl-1-[6-(1-methyl-4-piperidylamino)-2-pyridyl]-6-(3-phenyl-5-isothiazolylamino)-1,2-dihydro-3H-1,2,5,7-tetraazainden-3-one] | 100 to 500 | 20 to 100 | < 10 | – | – | –
16 | C=CCn1c(=O)c2cnc(Nc3ccc(F)c(C)c3)nc2n1-c1cccc(NC2CCNCC2)n1 [Compound 128, 2-allyl-6-(4-fluoro-3-toluidino)-1-[6-(4-piperidylamino)-2-pyridyl]-1,2-dihydro-3H-1,2,5,7-tetraazainden-3-one] | 100 to 500 | 100 to 500 | < 10 | – | – | –
17 | C=CCn1c(=O)c2cnc(Nc3ccc(Cl)cc3)nc2n1-c1cccc(O[C@@H]2CCCNC2)n1 [Compound 192, 1-{6-[(R)-3-piperidyloxy]-2-pyridyl}-2-allyl-6-(p-chlorophenylamino)-1,2-dihydro-3H-1,2,5,7-tetraazainden-3-one] | 100 to 500 | 100 to 500 | < 10 | – | – | –
18 | C=CCn1c(=O)c2cnc(Nc3ccc(F)cc3)nc2n1-c1cccc(OC2CCCNCC2)n1 (stereo not drawn) [Compound 315, 2-allyl-1-[6-(4-azepanyloxy)-2-pyridyl]-6-(p-fluorophenylamino)-1,2-dihydro-3H-1,2,5,7-tetraazainden-3-one] | 500 to 1000 | 20 to 100 | < 10 | – | – | –
19 | C=CCn1c(=O)c2cnc(Nc3ccc(Cl)c(C)c3)nc2n1-c1cccc(NC2CCNCC2)n1 [Compound 133, 2-allyl-6-(4-chloro-3-toluidino)-1-[6-(4-piperidylamino)-2-pyridyl]-1,2-dihydro-3H-1,2,5,7-tetraazainden-3-one] | 100 to 500 | 100 to 500 | < 10 | – | – | –
20 | C=CCn1c(=O)c2cnc(Nc3ccc(C(F)(F)F)cc3)nc2n1-c1cccc(NC2CCNCC2)n1 [Compound 131, 2-allyl-1-[6-(4-piperidylamino)-2-pyridyl]-6-[p-(trifluoromethyl)phenylamino]-1,2-dihydro-3H-1,2,5,7-tetraazainden-3-one] | 500 to 1000 | 100 to 500 | < 10 | – | – | –
21 | C=CCn1c(=O)c2cnc(Nc3ccc(Cl)cc3)nc2n1-c1cccc(O[C@H]2CCN(C)C2)n1 [Compound 148, 1-{6-[(S)-1-methyl-3-pyrrolidinyloxy]-2-pyridyl}-2-allyl-6-(p-chlorophenylamino)-1,2-dihydro-3H-1,2,5,7-tetraazainden-3-one] | 100 to 500 | 20 to 100 | < 10 | – | – | –
22 | C=CCn1c(=O)c2cnc(Nc3ccc(Cl)cc3)nc2n1-c1cccc(O[C@@H]2CCCN(C)C2)n1 [Compound 187, 1-{6-[(R)-1-methyl-3-piperidyloxy]-2-pyridyl}-2-allyl-6-(p-chlorophenylamino)-1,2-dihydro-3H-1,2,5,7-tetraazainden-3-one] | 500 to 1000 | 100 to 500 | < 10 | – | – | –
